Data from patent US6452005B1, “JAK-3 inhibitors for treating allergic disorders” (Parker Hughes Institute, priority 1999, dated 2002).
pIC50: −log10 of the molar value. Where two headings read alike, the source gives them in different places.

What was measured:
[1] = target: T1, recombinant murine JAK3 (Mus musculus, UniProt Q62137); assay: Immune complex kinase assay, recombinant JAK3 from baculovirus expression system; assay type: biochemical; conditions: recombinant murine JAK3, FIG. 6B
T1 construct: made in house; host or cells: Sf21 insect cells, baculovirus
T1 sequence (Q62137 1-1100): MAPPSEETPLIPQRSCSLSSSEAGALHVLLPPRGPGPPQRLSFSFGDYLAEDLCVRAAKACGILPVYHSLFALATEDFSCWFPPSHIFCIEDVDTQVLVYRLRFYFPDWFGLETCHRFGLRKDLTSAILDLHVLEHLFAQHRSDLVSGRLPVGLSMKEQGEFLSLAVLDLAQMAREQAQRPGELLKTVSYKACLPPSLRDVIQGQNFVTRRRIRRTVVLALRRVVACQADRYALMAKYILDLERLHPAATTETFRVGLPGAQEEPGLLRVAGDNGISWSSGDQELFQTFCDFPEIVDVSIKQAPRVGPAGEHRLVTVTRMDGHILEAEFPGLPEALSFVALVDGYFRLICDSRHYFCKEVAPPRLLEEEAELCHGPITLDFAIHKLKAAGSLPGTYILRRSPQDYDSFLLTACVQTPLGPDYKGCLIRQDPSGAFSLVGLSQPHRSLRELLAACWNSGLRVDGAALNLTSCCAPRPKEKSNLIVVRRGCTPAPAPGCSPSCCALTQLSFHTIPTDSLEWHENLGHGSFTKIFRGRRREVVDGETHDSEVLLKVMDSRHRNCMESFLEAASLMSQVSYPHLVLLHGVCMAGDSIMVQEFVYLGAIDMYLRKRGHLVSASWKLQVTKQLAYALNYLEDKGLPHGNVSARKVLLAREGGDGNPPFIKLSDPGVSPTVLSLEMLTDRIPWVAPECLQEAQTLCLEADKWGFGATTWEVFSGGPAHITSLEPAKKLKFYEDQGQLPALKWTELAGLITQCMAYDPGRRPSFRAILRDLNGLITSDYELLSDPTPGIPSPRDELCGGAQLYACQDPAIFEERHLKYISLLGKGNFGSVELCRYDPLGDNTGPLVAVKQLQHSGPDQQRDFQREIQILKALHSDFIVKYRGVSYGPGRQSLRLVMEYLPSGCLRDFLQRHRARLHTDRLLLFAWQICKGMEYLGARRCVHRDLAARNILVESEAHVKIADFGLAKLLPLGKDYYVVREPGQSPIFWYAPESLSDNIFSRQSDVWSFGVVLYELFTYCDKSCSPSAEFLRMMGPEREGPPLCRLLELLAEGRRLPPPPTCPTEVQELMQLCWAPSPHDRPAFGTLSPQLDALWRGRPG
Method: (§1) Immune Complex Kinase Assays.
KL-2 EBV-transformed human lymphoblastoid B cells (native JAK3 kinase assays) or insect ovary cells (recombinant JAK3 kinase assays) were lysed with NP-40 lysis buffer (50 mM Tris, pH 8, 150 mM NaCl, 5 mM EDTA, 1% NP-40, 100 μM sodium orthovanadate, 100 μM sodium molybdate, 8 μg/ml aprotinin, 5 μg/ml leupeptin, and 500 μM PMSF) and centrifuged 10 minutes at 13000×g to remove insoluble material. Samples were immunoprecipitated with antisera prepared against JAK3. The antisera were diluted and immune complexes collected by incubation with 15 μl protein A Sepharose. After 4 washes with NP-40 lysis buffer, the protein A Sepharose beads were washed once in kinase buffer (20 mM MOPS, pH 7.0, 10 mM MgCl2) and resuspended in the same buffer. Reactions were initiated by the addition of 25 μCi γ[^32P] ATP (5000 Ci/mMole) and unlabeled ATP to a final concentration of 5 μM. Reactions were terminated by boiling for 4 min in SDS sample buffer. Samples were run on 9.5% SDS polyacrylamide gels and labeled proteins will be detected by autoradiography. […] For each drug concentration, a kinase activity index (KA) was determined by comparing the kinase activity in phosphorimager units (PIU) to that of the baseline sample. […]

[2] = target: recombinant JAK2 (Homo sapiens, UniProt O60674); assay: Immune complex kinase assay, recombinant JAK2; conditions: FIG. 6C & D
Method: In FIGS. 6A-6D, JAK3, JAK1, and JAK2 were immunoprecipitated from Sf21 insect ovary cells transfected with the appropriate baculovirus expression vectors and treated with WHI-P131, then subjected to in vitro kinase assays as described in the Examples below. The enzymatic activity of JAKs was determined by measuring autophosphorylation in a 10 minute kinase assay, as described in the Examples below. The kinase activity (KA) levels were expressed as percentage of baseline activity (%CON).
Immune Complex Kinase Assays. Sf21 (IPLB-SF21-AE) cells (Vassilev et. al., 1999, J. Biol. Chem,. 274:1646-1656) derived from the ovarian tissue of the fall armyworm Spodotera frugiperda, were obtained from Invitrogen and maintained at 26-28° C. in Grace's insect cell medium supplemented with 10% FBS and 1.0% antibiotic/antimycotic (GIBCO-BRL). Stock cells were maintained in suspension at 0.2-1.6×10^6/ml in 600 ml total culture volume in 1 L Bellco spinner flasks at 60-90 rpm. Cell viability was maintained at 95-100% as determined by trypan blue dye exclusion.
Sf21 cells were infected with a baculovirus expression vector for BTK, SYK, JAK1, JAK2, or JAK3, as previously reported (Mahajan et. al., 1999, J. Biol. Chem., 274:1646-1656). […]

[3] = system: RBL-2H3 mast cells; assay: IgE/antigen-induced degranulation and mediator release; assay type: cell-based, rat; conditions: 1 h preincubation, DNP-BSA challenge; at ≧30 μM
From the text: Vehicle treated control RBL-2H3 cells released 45.1±3.1% of their hexosaminidase contents after DNP-BSA challenge. […] Vehicle treated control cells released 11.3±1.3 pg LTC4, and 160±33.0 pg TNFα/10^6 mast cells. The results on LTC4 and TNFα release are expressed as percent of maximum control release from vehicle treated control mast cells. The data points represent the mean±SEM values obtained from 3-6 independent experiments. […] *P<0.05 and **P<0.0001 compared to control as determined by Student's t test.
Supernatants were removed and saved.

[4] = system: JAK1/JAK2-dependent STAT activation; assay: EMSA, IL-3 triggered STAT activation in 32Dc11/IL2Rβ cells; assay type: cell-based; conditions: 10 μg/ml
Method: (§2) Electrophoretic Mobility Shift Assays (EMSAs). EMSAs were performed to examine the effects of dimethoxyquinazoline compounds on cytokine-induced STAT activation (Goodman et. al., 1998). […] Cells were collected after 15 minutes and resuspended in lysis buffer (100 mM Tris-HCl pH 8.0, 0.5% NP-40, 10% glycerol, […], 0.1 mM NaVO3, 50 mM NaF, 150 mM NaCl, 1 mM DTT, 3 μg/ml Aprotinin, 2 μg/ml Pepstatin A, 1 μg/ml Leupeptin and 0.2 mM PMSF). Lysates were precleared by centrifugation for 30 min. Cell extracts (approximately 10 μg) were incubated with 2 μg of poly(dI-dC) for 30 minutes, followed by a 30 minutes incubation with 1ng of poly. nucleotide kinase-^32P labeled double stranded DNA oligonucleotide representing the IRF-1 STAT DNA binding sequence (Santa Cruz Biotechnology, Santa Cruz, Calif.). Samples were resolved by non-denaturing PAGE and visualized by autoradiography.

[5] = target: T2, recombinant JAK1 (Homo sapiens, UniProt P23458); assay: Immune complex kinase assay, recombinant JAK1; assay type: biochemical; conditions: FIG. 6C & D
T2 construct: made in house; host or cells: Sf21 insect cells, baculovirus
From the text: as §1

[6] = system: JAK3-dependent STAT activation; assay: EMSA, IL-2 triggered STAT activation in 32Dc11/IL2Rβ cells; assay type: cell-based
Method: as §2

T2 sequence (P23458 whole entry): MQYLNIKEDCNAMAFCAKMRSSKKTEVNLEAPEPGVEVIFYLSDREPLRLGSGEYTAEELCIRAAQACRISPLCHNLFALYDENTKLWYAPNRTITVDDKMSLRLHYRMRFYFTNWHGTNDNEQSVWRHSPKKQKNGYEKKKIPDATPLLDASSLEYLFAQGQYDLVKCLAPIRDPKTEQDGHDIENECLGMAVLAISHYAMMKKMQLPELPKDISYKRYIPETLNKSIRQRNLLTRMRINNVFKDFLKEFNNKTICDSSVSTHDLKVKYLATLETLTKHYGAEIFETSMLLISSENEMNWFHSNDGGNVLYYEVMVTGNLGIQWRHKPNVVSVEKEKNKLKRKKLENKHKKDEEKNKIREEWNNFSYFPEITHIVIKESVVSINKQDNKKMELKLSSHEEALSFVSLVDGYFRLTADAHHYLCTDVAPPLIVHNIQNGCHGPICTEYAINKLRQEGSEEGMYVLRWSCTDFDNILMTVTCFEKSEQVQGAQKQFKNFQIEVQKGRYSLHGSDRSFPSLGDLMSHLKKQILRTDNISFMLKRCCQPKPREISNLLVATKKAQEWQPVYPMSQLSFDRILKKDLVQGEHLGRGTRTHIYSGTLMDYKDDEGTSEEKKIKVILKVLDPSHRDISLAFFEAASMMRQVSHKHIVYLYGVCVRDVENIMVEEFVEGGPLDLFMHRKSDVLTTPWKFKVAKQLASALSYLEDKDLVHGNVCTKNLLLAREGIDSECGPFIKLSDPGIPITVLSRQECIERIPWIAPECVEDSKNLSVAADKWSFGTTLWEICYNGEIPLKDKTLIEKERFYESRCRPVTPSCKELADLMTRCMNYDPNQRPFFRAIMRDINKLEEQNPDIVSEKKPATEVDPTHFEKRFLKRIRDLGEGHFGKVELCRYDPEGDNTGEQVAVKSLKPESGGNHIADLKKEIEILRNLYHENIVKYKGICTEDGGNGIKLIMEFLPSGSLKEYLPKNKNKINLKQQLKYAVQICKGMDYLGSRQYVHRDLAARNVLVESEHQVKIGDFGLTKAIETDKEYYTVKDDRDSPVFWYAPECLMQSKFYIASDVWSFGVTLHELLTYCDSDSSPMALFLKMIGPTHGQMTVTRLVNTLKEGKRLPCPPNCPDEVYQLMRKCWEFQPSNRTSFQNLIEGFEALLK
recombinant JAK2, sequence (O60674 whole entry): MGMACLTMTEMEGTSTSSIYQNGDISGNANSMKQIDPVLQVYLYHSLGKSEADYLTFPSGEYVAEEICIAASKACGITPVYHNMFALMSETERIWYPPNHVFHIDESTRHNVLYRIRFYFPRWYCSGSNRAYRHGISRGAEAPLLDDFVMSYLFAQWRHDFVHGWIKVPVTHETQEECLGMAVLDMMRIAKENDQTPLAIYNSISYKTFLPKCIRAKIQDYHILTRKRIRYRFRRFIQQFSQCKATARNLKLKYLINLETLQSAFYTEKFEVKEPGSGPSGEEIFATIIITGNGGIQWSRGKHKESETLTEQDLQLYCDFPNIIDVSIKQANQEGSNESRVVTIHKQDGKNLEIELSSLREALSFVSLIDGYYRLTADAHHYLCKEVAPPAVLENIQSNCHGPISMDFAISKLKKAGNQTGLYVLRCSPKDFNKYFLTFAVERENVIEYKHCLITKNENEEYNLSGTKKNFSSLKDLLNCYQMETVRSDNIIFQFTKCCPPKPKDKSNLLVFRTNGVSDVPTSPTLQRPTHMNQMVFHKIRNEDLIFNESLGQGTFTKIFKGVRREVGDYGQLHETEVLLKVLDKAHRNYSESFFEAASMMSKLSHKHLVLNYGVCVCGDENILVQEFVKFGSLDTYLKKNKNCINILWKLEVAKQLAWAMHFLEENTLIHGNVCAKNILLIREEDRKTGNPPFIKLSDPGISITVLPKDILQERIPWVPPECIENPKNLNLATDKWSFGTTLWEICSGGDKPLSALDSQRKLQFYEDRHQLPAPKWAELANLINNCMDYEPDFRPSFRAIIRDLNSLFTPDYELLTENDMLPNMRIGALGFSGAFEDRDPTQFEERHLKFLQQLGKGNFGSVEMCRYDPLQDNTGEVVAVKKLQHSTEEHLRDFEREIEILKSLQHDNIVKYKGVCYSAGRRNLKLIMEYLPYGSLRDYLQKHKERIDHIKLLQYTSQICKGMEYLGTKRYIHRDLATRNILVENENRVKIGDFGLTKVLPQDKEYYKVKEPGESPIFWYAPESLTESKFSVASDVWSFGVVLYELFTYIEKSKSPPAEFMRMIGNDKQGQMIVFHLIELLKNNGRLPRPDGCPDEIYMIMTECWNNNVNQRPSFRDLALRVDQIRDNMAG

What does the source list for `COc1cc2ncnc(Nc3ccc(O)c(Br)c3)c2cc1OC` [WHI-P154, 4-(3′-Bromo-4′-hydroxylphenyl)-amino-6,7-dimethoxyquinazoline]?
IC50 [1]: 48.1 µg/mL; pIC50 ([1]; molar value in brackets, read-out: IC50): ~3.89; inhibitory activity against recombinant JAK2 [2]: did not exhibit any detectable inhibitory activity; LTC4 release [3]: near to complete inhibition; TNFα release [3]: near to complete inhibition; β-hexosaminidase release (degranulation) [3]: near to complete inhibition; JAK1/JAK2-dependent STAT activation after stimulation with IL-3 [4]: did not affect; inhibitory activity against recombinant JAK1 [5]: did not exhibit any detectable inhibitory activity; JAK3-dependent STAT activation after stimulation with IL-2 ([6]; 10 μg/ml, 32Dc11/IL2Rβ cells): inhibited; IL-2 triggered JAK-3-dependent STAT activation ([6]; 100 μg/ml in FIG. 6E legend): inhibited
